Measured values as given in patent US6376546B1, “Biphenyl-5-alkanoic acid derivatives and use thereof” (Asahi Kasei Kabushiki Kaisha, priority 1997, dated 2002).

Columns and labels:
[1] = test system: anti-OVA-IgE antibody production; test: Suppressive effect on mouse in vivo anti-OVA-IgE antibody production; settings: po, 336 h, BALB/c mice immunized with OVA on aluminium hydroxide gel, 100 mg/kg orally once a day for 5 days, serum on day 14, PCA reaction in Wistar rats, read-out: Suppressive rate for IgE antibody production (%)
Protocol: BALB/c mice, female, 7 weeks old, 7 mice in a group, and 9-11 mice in control group, were used for tests.
Suppressive effect of the compound of the present invention on IgE antibody production was evaluated according to a method described in the reference, Levin and Vaz, International Archives of Allergy and Applied Immunology, 39: 156, 1970. Immunization was performed by intraperitoneally administering aluminium hydroxide gel (4 mg, PIERCE Inc.) adsorbed with egg albumin (OVA; Sigma Inc.) 10 μg in mice. Test compounds were suspended or dissolved in water containing 0.5% carboxymethyl cellulose, and administered orally to test animals, 100 mg/kg, immediately after immunization, once a day for 5 days. Water containing 0.5% carboxymethyl cellulose without addition of test compound was administered to the control group.
On day 14 after the immunization, blood was collected, and passive cutaneous anaphylaxis (PCA) reaction was performed according to the method described in the reference, Ovary et al. International Archives of Allergy and Applied Immunology, 48: 16, 1975, to determine the antibody production. Serum 0.1 ml, which was serially twofold diluted with physiological saline, was injected intracutaneously in the back of Wistar rats, male, 8 weeks old. After 24 hours, 0.5% Evans blue physiological saline solution, which contains OVA 2 mg, 1 ml was injected intravenously to determine the serum boundary concentration of pigment infiltration.
Suppressive rate for IgE antibody production is determined by the following equation.
Suppressive rate for IgE antibody production (%) [formula]

[2] = test system: immediate type allergic foot-pad reaction; test: Suppression of mouse in vivo foot-pad reaction; settings: BALB/c mice immunized by egg albumin; oral 3-100 mg/kg once a day for 5 days; compared with the positive control
Protocol: BALB/c mice, female, 7 weeks old, 5 mice in a group for test group and 12-14 mice for control group were used for tests.
Effect of the compounds of the present invention on suppression of mouse in vivo foot-pad reaction is evaluated by the following method.
Mice were immunized by administering intraperitoneally 4 mg of aluminium hydroxide gel, which was adsorbed with OVA 5 μg. Test compounds were suspended or dissolved in water containing 0.5% carboxymethyl cellulose, and were administered to test animals orally at 3-100 mg/kg, once a day, for 5 days, from immediately after immunization. For control groups, water containing 0.5% carboxymethyl cellulose without addition of the test compound was administered.
After 10 days of immunization, OVA 10 μg was injected into the hindlim pads of mice to induce immediate type allergic foot-pad reaction. Control groups were divided into tow groups. The one was injected OVA to induce allergic foot-pad reaction for positive control, and the other was injected physiological saline for negative control. After 30 minutes, foot-pad volume of hidlimb of mice was measured by using Plethysmometer (Unicom Co.) to determine increased rate for comparison before induction of foot-pad reaction.
Suppressive rate for foot-pad reaction is obtained by the following equation.
Suppressive rate for foot-pad reaction (%) [formula]
A: increased rate of foot-pad reaction in positive control group,
B: increased rate of foot-pad reaction in negative control group,
C: increased rate of foot-pad reaction in test group (test compound administered group).

| Compound | inhibition in vivo at 100 mg/kg [1] | suppressive action against immediate type allergic foot-pad reaction [2] |
| --- | --- | --- |
| O=C(O)CCc1ccc(OC2CCCC2)c(-c2ccccc2)c1 [Compound(04), 3-(2-cyclopentyloxy-1,1′-biphenyl-5-yl)propionic Acid] | 45.5% | significant suppressive action |
| O=C(O)CCCc1ccc(OCCC(=O)O)c(-c2ccccc2)c1 [Compound(45), 4-[2-(2-carboxyethyloxy)-1,1′-biphenyl-5-yl]butyric Acid] | 57% |  |
| CCCCOc1ccc(CCCC(=O)NCC)cc1-c1ccccc1 [Control(5), N-ethyl-4-(2-butoxy-1,1′-biphenyl-5-yl)butyramide, reference compound] | -2.5% |  |
| CC1(C)CCC(C)(C)c2cc(COc3cccc(CCC(=O)O)c3-c3cccc(C(=O)O)c3)ccc21 [Control(4), 3-[3′-carboxy-2-(5,6,7,8-tetrahydro-5,5,8,8-tetramethyl-2-naphthalenyl)methyloxy-1,1′-biphenyl-6-yl]propionic acid, reference compound] | -8.4% |  |
| NC(=O)COc1ccc(CCCC(=O)O)cc1-c1ccccc1 [Compound(47), 4-(2-carbamoylmethyloxy-1,1′-biphenyl-5-yl)butyric Acid] | 65.7% | significant suppressive action |
| CCCCOc1ccc(CCCC(=O)O)cc1-c1ccccc1 [Compound(28), 4-(2-butoxy-1,1′-biphenyl-5-yl)butyric Acid] | 44.5% | significant suppressive action |
| CCCCCOc1ccc(CCCC(=O)O)cc1-c1ccccc1 [Compound(31), 4-(2-pentyloxy-1,1′-biphenyl-5-yl)butyric Acid] | 49.8% |  |
| O=C(O)CCCc1ccc(OCC(=O)O)c(-c2ccccc2)c1 [Compound(44), 4-(2-carboxymethyloxy-1,1′-biphenyl-5-yl)butyric Acid] | 71.5% | significant suppressive action |
| C=CCOc1ccc(-c2cc(CCC(=O)OC)ccc2OCc2ccccc2)cc1 [Control(2), Methyl 3-(4′-allyloxy-2-benzyloxy-1,1′-biphenyl-5-yl)propionate, reference compound] | -11.6% |  |
| CCCCCOc1ccc(CCC(=O)O)cc1-c1ccccc1 [Compound(03), 3-(2-pentyloxy-1,1′-biphenyl-5-yl)propionic Acid] | 50.9% |  |
| CCCCOc1ccc(CCC(=O)O)cc1-c1ccccc1 [Compound(01), 3-(2-butoxy-1,1′-biphenyl-5-yl)propionic acid] | 72.3% |  |
| CCCCOc1ccc(CCCC(N)=O)cc1-c1ccccc1 [Compound(55), 4-(2-butoxy-1,1′-biphenyl-5-yl)butyramide] | 55.7% | significant suppressive action |
| CCCCOc1c(NC(C)=O)cc(CCCC(=O)O)cc1-c1ccccc1 [Compound(52), 4-(3-acetylamino-2-butoxy-1,1′-biphenyl-5-yl)butyric Acid] | 64.2% |  |
| O=C(O)CCc1ccc(OCC(=O)O)c(-c2ccccc2)c1 [Compound(12), 3-(2-carboxymethyloxy-1,1′-biphenyl-5-yl)propionic acid] | 50.8% |  |
| CCCCOc1ccc(-c2ccccc2)cc1CCCC(=O)O [Control(6), 4-(4-butoxy-1,1′-biphenyl-3-yl)butyric acid, reference compound] | 7.3% |  |
| CCC(O)COc1ccc(CCC(=O)O)cc1-c1ccccc1 (centres unmarked) [Compound(08), 3-[2-(2-hydroxybutyloxy)-1,1′-biphenyl-5-yl]propionic acid] | 58.9% |  |
| CCCCOc1c(NC(C)=O)cc(CCC(=O)O)cc1-c1ccccc1 [Compound(15), 3-(3-acetylamino-2-butoxy-1,1′-biphenyl-5-yl)propionic Acid] | 64.2% |  |
| CC(C)COc1ccc(CCCC(=O)O)cc1-c1ccccc1 [Compound(29), 4-(2-isobutoxy-1,1′-biphenyl-5-yl)butyric Acid] | 55.7% |  |
| NC(=O)Nc1cc(CCC(=O)O)cc(-c2ccccc2)c1OCC1CCCCC1 [Compound(22), 3-(3-carbamoylamino-2-cyclohexylmethyloxy-1,1′-biphenyl-5-yl)propionic Acid] | 48.1% | significant suppressive action |
| CC1(C)CCC(C)(C)c2cc(COc3ccc(C(=O)O)cc3-c3ccccc3)ccc21 [Control(3), [2-(5,6,7,8-tetrahydro-5,5,8,8-tetramethyl-2-naphthalenyl)methyloxy-1,1′-biphenyl-5-yl]carboxylic acid, reference compound] | -2.8% |  |
| O=C(O)CCc1ccc(OCC2CCCCC2)c(-c2ccccc2)c1 [Compound(07), 3-(2-cyclohexylmethyloxy-1,1′-biphenyl-5-yl)propionic Acid] | 62% | significant suppressive action |
| COc1ccc(CCC(=O)O)cc1-c1ccccc1 [Control(1), 3-(2-methoxy-1,1′-biphenyl-5-yl)propionic acid, reference compound] | -14.4% |  |
| O=C(O)CCCOc1ccc(CCCC(=O)O)cc1-c1ccccc1 [Compound(46), 4-[2-(3-carboxypropyloxy)-1,1′-biphenyl-5-yl]butyric Acid] | 64.6% |  |
| O=C(O)CCc1ccc(OCC2CCCCC2)c(-c2ccc(O)cc2)c1 [Compound(25), 3-(2-cyclohexylmethyloxy-4′-hydroxy-1,1′-biphenyl-5-yl)propionic Acid] | 45.5% | significant suppressive action |
